The text below walks through data of patent US20230330254A1 (Regeneron Pharmaceuticals, Inc., priority 2022, published 2023).

Like-named read-outs stand apart in the source and are kept apart here. Bounds are passed on as bounds.

Data set [1] is described as follows: Liver microsome stability. Type of data set: in vitro ADME, human. The procedure: To assess the in vitro ADME properties of the LP, microsomal stability assay was performed to determine intrinsic clearance, and plasma protein binding assay was performed to understand the distribution potential.
For orientation: Liver microsomes are a subcellular fraction often used to study metabolism.

In data set [2] the target is T1, human glucagon-like peptide 2 receptor (GLP2R) (Homo sapiens, UniProt O95838).
T1 construct: full-length human GLP1R, cynomolgus GLP1R, human glucagon receptor (GCGR), human glucagon-like peptide 2 receptor (GLP2R); expressed in transfected cells; host or cells: HEK293/CRE-Luc
T1 sequence (O95838 1-553): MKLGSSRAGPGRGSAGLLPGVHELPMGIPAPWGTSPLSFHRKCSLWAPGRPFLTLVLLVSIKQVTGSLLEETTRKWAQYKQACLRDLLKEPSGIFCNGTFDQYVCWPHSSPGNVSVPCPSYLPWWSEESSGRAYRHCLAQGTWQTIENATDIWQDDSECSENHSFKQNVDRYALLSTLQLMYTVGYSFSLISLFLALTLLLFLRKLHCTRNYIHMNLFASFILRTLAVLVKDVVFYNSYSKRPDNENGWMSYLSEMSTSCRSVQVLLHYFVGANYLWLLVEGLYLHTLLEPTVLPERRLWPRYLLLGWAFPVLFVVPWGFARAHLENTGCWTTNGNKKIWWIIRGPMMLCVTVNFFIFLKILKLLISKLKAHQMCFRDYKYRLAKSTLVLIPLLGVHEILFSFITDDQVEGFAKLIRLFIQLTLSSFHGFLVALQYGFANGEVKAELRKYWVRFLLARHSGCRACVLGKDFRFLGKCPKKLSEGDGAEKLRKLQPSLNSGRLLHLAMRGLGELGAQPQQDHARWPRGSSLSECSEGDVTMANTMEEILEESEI
Description: CRE-luciferase reporter assay, HEK293/Myc-hGLP2R/Cre-Luc (Example 9). As to conditions: Table 5C. Type of data set: cell-based. The procedure:
(§1) To test the activity of GLP1R agonist payloads and GLP1R agonist linker-payloads (LPs) in vitro, a cell-based cAMP responsive luciferase reporter assay was developed.
(§2) Cells were incubated overnight at 37° C. in 5% CO2. […] Plates were incubated for 5.5 h at 37° C. in 5% CO2. For end-point measurement, 100 μL/well of One-Glo reagent (Promega, #E6051) was added and plates were kept at room temperature for 5-10 minutes. Luciferase activity was measured on Envision Multilabel Plate Reader (Perkin Elmer) in Luminescent mode. The relative light units (RLU) values were obtained and the results were analyzed using nonlinear regression with GraphPad Prism software (GraphPad).

The nature of data set [3]: Plasma stability of payloads and linker-payloads, monkey plasma. Type of data set: in vitro ADME. Particulars: pooled plasma. The procedure: The plasma stability of payloads and linker payloads of the disclosure were measured. For the assay, pooled frozen plasma (human, mouse or monkey) was thawed in cold water or a 37° C. water bath prior to experiment. Plasma was centrifuged at 4000 rpm for 5 min if any clots were observed, they were subsequently removed. If required, the pH was adjusted to 7.4±0.1. For the preparation of compounds and positive controls, a 1 mM intermediate solution was prepared by diluting 10 μL of their stock solution with 90 μL DMSO; a 1 mM intermediate solution of the positive control (Propantheline) was prepared by diluting 10 μL of its stock solution with 90 μL ultrapure water. Subsequently, 100 μM dosing solution for each compound was prepared by diluting 20 μL of the intermediate solution (1 mM) with 180 μL 45% MeOH/H2O. 98 μL of plasma was spiked with 2 μL of dosing solution (100 μM) to achieve the final concentration of 2 μM in duplicate. Samples were then incubated at 37° C. in a water bath. […] At each time point, 400 μL of stop solution (200 ng/mL tolbutamide plus 200 ng/mL labetalol in 50% ACN/MeOH) was added to precipitate protein and mixed thoroughly. Sample plates were then centrifuged at 4,000 rpm for 10 min. An aliquot of supernatant (50 μL) was transferred from each well and mixed with 100 μL ultrapure water. The samples were then shaken at 800 rpm for approximately 10 min before submitting for LC-MS/MS analysis.

Data set [4] in a line: Plasma protein binding (equilibrium dialysis). Type of data set: in vitro ADME, human. The procedure:
The pH value of the resulting plasma was checked
(<http://www.htdialysis.com/>).
DMSO working solutions were prepared at 400 μM. […] These samples were transferred into new 96-well plates.
In general terms: Equilibrium dialysis compares concentrations on both sides of a semipermeable membrane.

In data set [5] the target is T2, human gastric inhibitory polypeptide receptor (GIPR) (Homo sapiens, UniProt P48546).
T2 sequence (P48546 22-466): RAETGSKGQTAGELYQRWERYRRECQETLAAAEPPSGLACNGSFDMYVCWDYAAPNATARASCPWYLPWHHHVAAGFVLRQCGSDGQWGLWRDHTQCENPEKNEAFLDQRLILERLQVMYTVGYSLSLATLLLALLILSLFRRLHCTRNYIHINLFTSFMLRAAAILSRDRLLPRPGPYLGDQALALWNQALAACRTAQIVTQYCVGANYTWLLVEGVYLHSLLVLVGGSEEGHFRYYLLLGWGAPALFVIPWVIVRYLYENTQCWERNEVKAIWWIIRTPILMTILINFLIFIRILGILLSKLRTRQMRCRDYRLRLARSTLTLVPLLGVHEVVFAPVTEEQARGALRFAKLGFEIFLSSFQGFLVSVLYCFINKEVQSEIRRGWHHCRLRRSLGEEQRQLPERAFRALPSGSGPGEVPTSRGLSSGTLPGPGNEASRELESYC
Description: CRE-luciferase reporter assay, HEK293/Myc-hGIPR/Cre-Luc (Example 9). Type of data set: cell-based. Details: Myc; expressed in transfected cells. As to conditions: Table 5C. The procedure: as §1, §2
(Reporter assays use an easily measured gene product as a stand-in for the process of interest.)

The target in data set [6] is T3, human glucagon receptor (GCGR) (Homo sapiens, UniProt P47871).
T3 construct: full-length human GLP1R, cynomolgus GLP1R, human glucagon receptor (GCGR); expressed in transfected cells; host or cells: HEK293/CRE-Luc
Description: CRE-luciferase reporter assay, HEK293/Myc-hGCGR/Cre-Luc (Example 9). In kind it is cell-based. Particulars: Table 5C. The procedure: as §1, §2

In data set [7] the target is T3, human glucagon receptor (GCGR). The data set can be described thus: Luciferase reporter assay, HEK293/CRE-Luc/hGCGR (Example 17). As to conditions: Table 28; CRE-dependent luciferase reporter activity. Type of data set: cell-based.

T3 sequence (P47871 26-477): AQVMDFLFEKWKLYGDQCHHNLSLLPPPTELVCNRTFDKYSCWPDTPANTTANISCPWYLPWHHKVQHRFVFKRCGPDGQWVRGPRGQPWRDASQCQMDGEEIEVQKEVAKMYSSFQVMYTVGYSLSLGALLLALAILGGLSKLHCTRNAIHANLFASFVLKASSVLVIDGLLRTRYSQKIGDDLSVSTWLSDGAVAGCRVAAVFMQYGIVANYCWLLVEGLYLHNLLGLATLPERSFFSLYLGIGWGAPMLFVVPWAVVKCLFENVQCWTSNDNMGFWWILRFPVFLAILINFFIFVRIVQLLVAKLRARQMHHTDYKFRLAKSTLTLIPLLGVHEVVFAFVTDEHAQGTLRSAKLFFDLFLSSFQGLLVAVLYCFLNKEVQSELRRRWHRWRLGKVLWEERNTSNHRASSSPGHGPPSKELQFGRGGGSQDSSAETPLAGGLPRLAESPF

As for `CCc1cc(OCCCCn2cc(COCCOCCOCCOCCOCCOCCOCCOCCN)nn2)ccc1-c1ccc(C[C@H](NC(=O)[C@H](CC(=O)O)NC(=O)[C@H](CO)NC(=O)[C@@H](NC(=O)C(C)(Cc2ccccc2F)NC(=O)[C@@H](NC(=O)CNC(=O)[C@H](Cc2nn[nH]n2)NC(=O)C(C)(C)C(=O)NCCc2cnc[nH]2)[C@@H](C)O)[C@@H](C)O)C(=O)N[C@@H](CCCc2cc(C)cc(C)c2)C(N)=O)cc1` (stereo partly drawn) [LP11, NH2-PEG8-triazole-P8], the “CLint(mic)” value in data set [1] (Table 7) was less than 9.6 µL/min/mg. Besides, the CLint scaled in data set [1] (human, liver microsomes, Table 5C, read-out: Human Liver microsome CLint(liver)) was less than 8.6 mL/min/kg. For the same compound, in data set [1] (human, liver microsomes, Table 5C, read-out: Human Liver microsome CLint(mic)), the microsomal CLint was less than 9.6 µL/min/mg. In addition, the half-life in data set [1] (human, liver microsomes, Table 5C, read-out: Human Liver microsome T1/2) is greater than 2.42 h. In data set [2], the “GLP2R EC50 (nM)” value was “Completely inactive”. The half-life at 2 µM in data set [3] (pH 7.4, Monkey, assay time 3 days, Table 5B, read-out: plasma stability T½) was greater than 49.4 h. The half-life at 2 µM in data set [3] (pH 7.4, Table 5A, monkey plasma, tested time C (3 days), read-out: plasma stability T½ (hr), monkey) was greater than 49.4 h. Besides, the half-life at 2 µM in data set [3] (pH 7.4, Table 5C, read-out: Plasma Stability Monkey T1/2) is greater than 48 h. Moreover, in data set [4] (Human Plasma, 4 hours dialysis), the “% Bound” value turned out to be 97.97%; the “% Unbound” value was 2.03%; the recovery at 4 h, 2 µM came to 89.2%. This compound also gave a free fraction (fraction unbound) at 4 h, 2 µM in data set [4] (human, plasma, Table 5C) of 0.0203. Moreover, in data set [5], the “GIPR EC50 (nM)” value is “Completely inactive”. The “GCGR EC50 (nM)” value in data set [6] is “Completely inactive”.
Turning to `CCc1cc(OCCCCn2cc(COCCOCCOCCOCCOCCOCCOCCOCCN)nn2)ccc1-c1ccc(C[C@H](NC(=O)[C@H](CC(=O)O)NC(=O)[C@H](CO)NC(=O)[C@@H](NC(=O)[C@](C)(Cc2ccccc2F)NC(=O)[C@@H](NC(=O)CNC(=O)[C@H](Cc2nn[nH]n2)NC(=O)C(C)(C)C(=O)NCCc2cnc[nH]2)[C@@H](C)O)[C@@H](C)O)C(=O)N[C@@H](CCCc2cc(C)cc(C)c2)C(N)=O)cc1` [M3190], in data set [7], the 50% effective concentration (EC50) is greater than 0.2 µM.

Broadly, the fraction unbound is free concentration divided by total concentration. Usually EC50 stands for the concentration at which the effect is half-maximal.
